From the NIST ThermoML archive (doi:10.1016/j.jct.2012.11.027)

Test: xn = mol fraction of the nth substance listed
Conditions: 101 kPa, Liquid, Linear variable-path acoustic interferometer

C=CC(=O)OC [methyl propenoate] + CCCCCCCCCCO
speed of sound [m/s]
Conditions | 288.15 K | 293.15 K | 298.15 K | 303.15 K | 308.15 K | 313.15 K | 318.15 K
x1 = 0.0762 | 1388.2 | 1370.2 | 1352.1 | 1333.5 | 1318.1 | 1299.5 | 1284
x1 = 0.1523 | 1366.7 | 1348.2 | 1330.6 | 1312.1 | 1295.8 | 1276.3 | 1259.4
x1 = 0.2225 | 1346.9 | 1328.3 | 1310.1 | 1291.2 | 1275.1 | 1255.2 | 1238.1
x1 = 0.3073 | 1324.4 | 1304.9 | 1286.5 | 1268.1 | 1251.5 | 1231.5 | 1214.4
x1 = 0.3848 | 1304.7 | 1285.2 | 1267 | 1248.2 | 1231.2 | 1211.3 | 1194.3
x1 = 0.4622 | 1286.4 | 1267 | 1248.9 | 1230 | 1212.8 | 1193.1 | 1175.6
x1 = 0.5356 | 1270.8 | 1251.3 | 1233 | 1214.6 | 1197 | 1177.4 | 1160
x1 = 0.6092 | 1257.7 | 1238.3 | 1219.8 | 1201.2 | 1183 | 1163.6 | 1145.6
x1 = 0.6768 | 1247.2 | 1227.9 | 1209.4 | 1190.4 | 1171.8 | 1152.1 | 1133.7
x1 = 0.7443 | 1238.8 | 1219.3 | 1200.6 | 1181.3 | 1161.9 | 1141.8 | 1123.2
x1 = 0.8089 | 1233.4 | 1213.4 | 1193.9 | 1174.3 | 1154.1 | 1134 | 1114.4
x1 = 0.8736 | 1229.8 | 1209.1 | 1189.2 | 1169.1 | 1147.8 | 1127.2 | 1106.9
x1 = 0.9412 | 1227.4 | 1206.1 | 1185.6 | 1164.6 | 1142.5 | 1121.4 | 1100.4
x1 = 1 | 1226.6 | 1204.6 | 1183.6 | 1162.2 | 1139.1 | 1117.8 | 1095.7

C=CC(=O)OC [methyl propenoate] + CCCCCCO
speed of sound [m/s]
Conditions | 288.15 K | 293.15 K | 298.15 K | 303.15 K | 308.15 K | 313.15 K | 318.15 K
x1 = 0.077 | 1325.5 | 1306.4 | 1290.5 | 1272 | 1256.5 | 1236.3 | 1216.5
x1 = 0.1542 | 1311.1 | 1291.6 | 1275.3 | 1256.1 | 1240.1 | 1219.7 | 1199.7
x1 = 0.2299 | 1297.1 | 1277.5 | 1260.7 | 1241.8 | 1225.1 | 1204.8 | 1185.1
x1 = 0.3057 | 1284.1 | 1264.4 | 1247.4 | 1228.5 | 1211.6 | 1191.6 | 1171.8
x1 = 0.3834 | 1272 | 1252.3 | 1235.1 | 1216.4 | 1199.1 | 1179.4 | 1159.6
x1 = 0.4612 | 1261.7 | 1242 | 1224.5 | 1205.6 | 1187.9 | 1168.1 | 1148.2
x1 = 0.534 | 1253.5 | 1233.6 | 1215.9 | 1196.7 | 1178.5 | 1158.6 | 1138.4
x1 = 0.6068 | 1246.6 | 1226.4 | 1208.2 | 1188.7 | 1169.8 | 1149.7 | 1129.3
x1 = 0.672 | 1241.3 | 1220.8 | 1202.2 | 1182.4 | 1162.8 | 1142.4 | 1121.7
x1 = 0.737 | 1237.3 | 1216.6 | 1197.5 | 1177.4 | 1157 | 1136.3 | 1115.2
x1 = 0.8046 | 1233.9 | 1212.9 | 1193.4 | 1172.8 | 1151.6 | 1130.6 | 1109.1
x1 = 0.8722 | 1231.2 | 1209.8 | 1189.8 | 1168.7 | 1146.7 | 1125.4 | 1103.5
x1 = 0.9361 | 1229.1 | 1207.4 | 1186.7 | 1165.4 | 1142.6 | 1121.2 | 1099.4
x1 = 1 | 1226.6 | 1204.6 | 1183.6 | 1162.2 | 1139.1 | 1117.8 | 1095.7

C=CC(=O)OC [methyl propenoate] + CCCCCCCCO
speed of sound [m/s]
Conditions | 288.15 K | 293.15 K | 298.15 K | 303.15 K | 308.15 K | 313.15 K | 318.15 K
x1 = 0.077 | 1371.5 | 1352.2 | 1331.5 | 1310.8 | 1292.2 | 1274.2 | 1256.8
x1 = 0.1554 | 1352.2 | 1331.8 | 1311.5 | 1290.9 | 1271.8 | 1253.4 | 1235.1
x1 = 0.2304 | 1333.7 | 1313.6 | 1293.4 | 1273.1 | 1253.6 | 1234.9 | 1216.4
x1 = 0.3053 | 1316.3 | 1296.3 | 1276 | 1255.8 | 1236 | 1217.5 | 1198.9
x1 = 0.383 | 1299.9 | 1280 | 1259.7 | 1239.6 | 1219.7 | 1200.9 | 1182.4
x1 = 0.4603 | 1285 | 1265.1 | 1244.7 | 1224.5 | 1204.5 | 1185.9 | 1167.5
x1 = 0.5321 | 1272.6 | 1252.5 | 1232.1 | 1212.1 | 1192.1 | 1173.4 | 1154.8
x1 = 0.6038 | 1262.4 | 1242 | 1221.6 | 1201.3 | 1181.1 | 1162.1 | 1143.1
x1 = 0.6724 | 1253.7 | 1233.3 | 1212.9 | 1192.3 | 1171.7 | 1152.5 | 1132.8
x1 = 0.741 | 1246.5 | 1225.8 | 1205.4 | 1184.7 | 1163.6 | 1143.8 | 1123.6
x1 = 0.8052 | 1241.4 | 1220.1 | 1199.4 | 1178.5 | 1156.7 | 1136.5 | 1115.7
x1 = 0.8698 | 1236.3 | 1214.7 | 1193.7 | 1172.5 | 1150.2 | 1129.6 | 1108.3
x1 = 0.935 | 1231.8 | 1209.6 | 1188.3 | 1166.8 | 1144.2 | 1123.1 | 1101.5
x1 = 1 | 1226.6 | 1204.6 | 1183.6 | 1162.2 | 1139.1 | 1117.8 | 1095.7

C=CC(=O)OC [methyl propenoate] + CCCCO
speed of sound [m/s]
Conditions | 288.15 K | 293.15 K | 298.15 K | 303.15 K | 308.15 K | 313.15 K | 318.15 K
x1 = 0.0777 | 1271.2 | 1250.8 | 1230.5 | 1212.8 | 1193.9 | 1174.9 | 1155
x1 = 0.1555 | 1261.3 | 1240.6 | 1220.1 | 1202.2 | 1182.9 | 1163.7 | 1143.8
x1 = 0.2273 | 1253.3 | 1232.6 | 1212.2 | 1194.2 | 1174.7 | 1155.5 | 1135.6
x1 = 0.299 | 1247 | 1226.3 | 1205.9 | 1187.7 | 1167.9 | 1148.7 | 1128.7
x1 = 0.3791 | 1241.3 | 1220.5 | 1200.2 | 1181.7 | 1161.6 | 1142.2 | 1122.1
x1 = 0.4593 | 1236.9 | 1216.1 | 1195.7 | 1176.8 | 1156.4 | 1136.8 | 1116.5
x1 = 0.5344 | 1233.9 | 1212.8 | 1192.4 | 1173.1 | 1152.4 | 1132.5 | 1111.9
x1 = 0.6095 | 1231.7 | 1210.5 | 1189.9 | 1170.3 | 1149.2 | 1128.9 | 1108
x1 = 0.6789 | 1230.3 | 1208.9 | 1188.2 | 1168.2 | 1146.7 | 1126.2 | 1104.9
x1 = 0.7483 | 1229.2 | 1207.7 | 1186.9 | 1166.6 | 1144.6 | 1123.8 | 1102.3
x1 = 0.8099 | 1228.5 | 1206.9 | 1186 | 1165.4 | 1143.1 | 1122.1 | 1100.4
x1 = 0.8715 | 1228 | 1206.2 | 1185.3 | 1164.4 | 1141.7 | 1120.6 | 1098.6
x1 = 0.9358 | 1227.4 | 1205.5 | 1184.5 | 1163.4 | 1140.4 | 1119 | 1096.9
x1 = 1 | 1226.6 | 1204.6 | 1183.6 | 1162.2 | 1139.1 | 1117.8 | 1095.7
